Measured values from PubChem BioAssay AID256 (DTP/NCI, 2004).
Inconclusive results and toxic doses are left out. How the source made its calls: active means survival T/C of 150% or more; inactive means T/C below 125% in these data.

System: CD2F1 mice, L1210 leukemia ip, survival T/C
Assay: NCI In Vivo Anticancer Drug Screen. Data for tumor model L1210 Leukemia (intraperitoneal) in CD2F1 (CDF1) mice
Conditions: higher = longer survival
Procedure, shortened: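 Read-out first: treated-group measurement over vehicle-control measurement, expressed as a ratio. Animals bore a transplanted tumor line and were dosed with compound or vehicle.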

[1] = endpoint: mean survival time, dose: 100.0 mg/kg/injection, schedule: Q01DX009 (ip), vehicle: saline with Tween-80
[2] = endpoint: mean survival time, dose: 200.0 mg/kg/injection, schedule: Q01DX009 (ip), vehicle: saline with Tween-80
[3] = endpoint: mean survival time, dose: 400.0 mg/kg/injection, schedule: Q01DX009 (ip), vehicle: saline with Tween-80
[4] = endpoint: mean survival time, dose: 100.0 mg/kg/injection, schedule: Q04DX003 (ip), vehicle: saline with Tween-80
[5] = endpoint: mean survival time, dose: 200.0 mg/kg/injection, schedule: Q04DX003 (ip), vehicle: saline with Tween-80
[6] = endpoint: mean survival time, dose: 400.0 mg/kg/injection, schedule: Q04DX003 (ip), vehicle: saline with Tween-80
[7] = endpoint: mean survival time, dose: 50.0 mg/kg/injection, schedule: Q01DX009 (ip), vehicle: saline with Tween-80
[8] = endpoint: mean survival time, dose: 100.0 mg/kg/injection, schedule: Q01DX001 (ip), vehicle: saline with Tween-80
[9] = endpoint: mean survival time, dose: 200.0 mg/kg/injection, schedule: Q01DX001 (ip), vehicle: saline with Tween-80
[10] = endpoint: mean survival time, dose: 400.0 mg/kg/injection, schedule: Q01DX001 (ip), vehicle: saline with Tween-80
[11] = endpoint: mean survival time, dose: 25.0 mg/kg/injection, schedule: Q01DX001 (ip), vehicle: Klucel (hydroxypropylcellulose) (HPC)
[12] = endpoint: mean survival time, dose: 50.0 mg/kg/injection, schedule: Q01DX001 (ip), vehicle: Klucel (hydroxypropylcellulose) (HPC)

Measured: T/C

C=C1C(=O)OC2CC(C)C3C4OC4C(O)C3(C)C(O)C12 (centres undefined)
inactive: endpoint: median survival time, dose: 3.12 mg/kg/injection, schedule: Q01DX009 (ip), vehicle: saline 97 % of control | endpoint: median survival time, dose: 6.25 mg/kg/injection, schedule: Q01DX009 (ip), vehicle: saline 113 % of control | endpoint: median survival time, dose: 12.5 mg/kg/injection, schedule: Q01DX009 (ip), vehicle: saline 101 % of control | endpoint: median survival time, dose: 25.0 mg/kg/injection, schedule: Q01DX009 (ip), vehicle: saline 107 % of control | endpoint: median survival time, dose: 50.0 mg/kg/injection, schedule: Q01DX009 (ip), vehicle: saline 109 % of control | endpoint: median survival time, dose: 100.0 mg/kg/injection, schedule: Q01DX009 (ip), vehicle: saline 124 % of control

COc1cc(NC(C)=O)ccn1
inactive: [1] 95 % of control | [2] 96 % of control | [3] 102 % of control

N#CCCC1(CCC#N)c2ccccc2-c2ccccc21
inactive: [4] 95 % of control | [5] 100 % of control | [6] 105 % of control

CC(=O)c1ccc(N=NC2C(=O)N(c3ccccc3)N=C2C)cc1 (centres undefined)
inactive: [2] 87 % of control | [3] 95 % of control

COc1cc(OC)c(NC(=O)Oc2ccc(SC)cc2)cc1Cl
inactive: endpoint: mean survival time, dose: 12.5 mg/kg/injection, schedule: Q01DX009 (ip), vehicle: saline with Tween-80 94 % of control | endpoint: mean survival time, dose: 25.0 mg/kg/injection, schedule: Q01DX009 (ip), vehicle: saline with Tween-80 97 % of control | [7] 97 % of control | [1] 88 % of control | [2] 92 % of control

O=c1ssc2ccccc12
inactive: [4] 101 % of control | [5] 101 % of control | [6] 98 % of control

NNC(=S)S
inactive: endpoint: mean survival time, dose: 5.0 mg/kg/injection, schedule: Q01DX001 (ip), vehicle: saline 96 % of control | endpoint: mean survival time, dose: 10.0 mg/kg/injection, schedule: Q01DX001 (ip), vehicle: saline 98 % of control

Cc1cccc2cc3c(sc4ccccc43)c(C)c12
inactive: endpoint: mean survival time, dose: 7.9 mg/kg/injection, schedule: Q04DX003 (ip), vehicle: other 101 % of control | endpoint: mean survival time, dose: 15.7 mg/kg/injection, schedule: Q04DX003 (ip), vehicle: other 97 % of control | endpoint: mean survival time, dose: 31.3 mg/kg/injection, schedule: Q04DX003 (ip), vehicle: other 97 % of control | endpoint: mean survival time, dose: 62.5 mg/kg/injection, schedule: Q04DX003 (ip), vehicle: other 97 % of control | endpoint: mean survival time, dose: 125.0 mg/kg/injection, schedule: Q04DX003 (ip), vehicle: other 93 % of control

CC(C)(CI)CI
inactive: [4] 104 % of control | [5] 102 % of control | [6] 96 % of control

NC(=O)COc1ccc(Br)cc1
inactive: endpoint: mean survival time, dose: 100.0 mg/kg/injection, schedule: Q04DX002 (ip), vehicle: saline with Tween-80 102 % of control | endpoint: mean survival time, dose: 200.0 mg/kg/injection, schedule: Q04DX002 (ip), vehicle: saline with Tween-80 98 % of control

CSc1nc(NN)c2cnn(C3OC(CO)C(O)C3O)c2n1 (centres undefined)
inactive: endpoint: median survival time, dose: 11.3 mg/kg/injection, schedule: Q01DX005 (ip), vehicle: saline with Tween-80 107 % of control | endpoint: median survival time, dose: 22.5 mg/kg/injection, schedule: Q01DX005 (ip), vehicle: saline with Tween-80 104 % of control | endpoint: median survival time, dose: 45.0 mg/kg/injection, schedule: Q01DX005 (ip), vehicle: saline with Tween-80 102 % of control | endpoint: median survival time, dose: 90.0 mg/kg/injection, schedule: Q01DX005 (ip), vehicle: saline with Tween-80 105 % of control

Cn1cnc(=S)c2ccccc21
inactive: endpoint: mean survival time, dose: 25.0 mg/kg/injection, schedule: Q04DX003 (ip), vehicle: Klucel (hydroxypropylcellulose) (HPC) 104 % of control | endpoint: mean survival time, dose: 50.0 mg/kg/injection, schedule: Q04DX003 (ip), vehicle: Klucel (hydroxypropylcellulose) (HPC) 93 % of control

Cc1ccc(CO)cc1C
inactive: [7] 101 % of control | [1] 97 % of control | [2] 101 % of control

O=CNc1ccccc1
inactive: [1] 97 % of control | [2] 105 % of control | [3] 115 % of control

O=Cc1ccc(OCCCOc2ccc([N+](=O)[O-])cc2)cc1
inactive: endpoint: mean survival time, dose: 100.0 mg/kg/injection, schedule: Q04DX002 (ip), vehicle: Klucel (hydroxypropylcellulose) (HPC) 102 % of control | endpoint: mean survival time, dose: 200.0 mg/kg/injection, schedule: Q04DX002 (ip), vehicle: Klucel (hydroxypropylcellulose) (HPC) 94 % of control | endpoint: mean survival time, dose: 400.0 mg/kg/injection, schedule: Q04DX002 (ip), vehicle: Klucel (hydroxypropylcellulose) (HPC) 102 % of control

c1ccc(C2=NNC(c3ccccc3)=NN2)cc1
inactive: endpoint: mean survival time, dose: 100.0 mg/kg/injection, schedule: Q01DX001 (ip), vehicle: other 105 % of control | [8] 101 % of control | endpoint: mean survival time, dose: 200.0 mg/kg/injection, schedule: Q01DX001 (ip), vehicle: other 94 % of control | [9] 97 % of control | endpoint: mean survival time, dose: 400.0 mg/kg/injection, schedule: Q01DX001 (ip), vehicle: other 103 % of control | [10] 103 % of control

CC1OC(n2ccc(=O)[nH]c2=O)C2OC(C)(C)OC2C1=O (centres undefined)
inactive: endpoint: median survival time, dose: 12.5 mg/kg/injection, schedule: Q01DX005 (ip), vehicle: saline with Tween-80 109 % of control | endpoint: median survival time, dose: 25.0 mg/kg/injection, schedule: Q01DX005 (ip), vehicle: saline with Tween-80 97 % of control | endpoint: median survival time, dose: 50.0 mg/kg/injection, schedule: Q01DX005 (ip), vehicle: saline with Tween-80 97 % of control | endpoint: median survival time, dose: 100.0 mg/kg/injection, schedule: Q01DX005 (ip), vehicle: saline with Tween-80 101 % of control | endpoint: median survival time, dose: 200.0 mg/kg/injection, schedule: Q01DX005 (ip), vehicle: saline with Tween-80 101 % of control

[CH3][Pb]([CH3])([CH3])[NH]C#N
inactive: endpoint: mean survival time, dose: 2.5 mg/kg/injection, schedule: Q01DX009 (ip), vehicle: saline 98 % of control | endpoint: mean survival time, dose: 5.0 mg/kg/injection, schedule: Q01DX009 (ip), vehicle: saline 87 % of control

COc1ccccc1N=O
inactive: endpoint: mean survival time, dose: 12.5 mg/kg/injection, schedule: Q01DX001 (ip), vehicle: Klucel (hydroxypropylcellulose) (HPC) 93 % of control | [11] 96 % of control | [12] 93 % of control

FC(F)(F)/C([S-])=C(/[S-])C(F)(F)F.N#[O+].[Mn].[c-]1[c-][c-][cH-][c-]1
inactive: endpoint: mean survival time, dose: 75.0 mg/kg/injection, schedule: Q01DX001 (ip), vehicle: other 103 % of control

O=C1NC23C(=O)N(C4CCCCC4)CC2(Cc2ccccc2)c2ccccc2N3C1=O (centres undefined)
inactive: [8] 86 % of control | [9] 92 % of control | [10] 86 % of control

CSc1sc2cc([N+](=O)[O-])ccc2[n+]1C
inactive: endpoint: mean survival time, dose: 75.0 mg/kg/injection, schedule: Q01DX001 (ip), vehicle: saline 103 % of control

COC(=O)C(Cc1c[nH]c2ccccc12)NC(=O)C(Cc1c[nH]c2ccccc12)NC(=O)OC(C)(C)C (centres undefined)
inactive: [8] 87 % of control | [1] 98 % of control | [9] 96 % of control | [2] 96 % of control | [10] 100 % of control | [3] 104 % of control

CN1C(=O)C2C(N=C(c3ccccc3)N2O)N(C)C1=O (centres undefined)
inactive: endpoint: mean survival time, dose: 12.5 mg/kg/injection, schedule: Q01DX005 (ip), vehicle: other 93 % of control | endpoint: mean survival time, dose: 25.0 mg/kg/injection, schedule: Q01DX005 (ip), vehicle: other 93 % of control | endpoint: mean survival time, dose: 50.0 mg/kg/injection, schedule: Q01DX005 (ip), vehicle: other 90 % of control | endpoint: mean survival time, dose: 100.0 mg/kg/injection, schedule: Q01DX005 (ip), vehicle: other 97 % of control | endpoint: mean survival time, dose: 200.0 mg/kg/injection, schedule: Q01DX005 (ip), vehicle: other 98 % of control

CCOC(=O)NC(=O)OCC
inactive: endpoint: mean survival time, dose: 100.0 mg/kg/injection, schedule: Q01DX001 (ip), vehicle: saline sonified 102 % of control | endpoint: mean survival time, dose: 200.0 mg/kg/injection, schedule: Q01DX001 (ip), vehicle: saline sonified 107 % of control | endpoint: mean survival time, dose: 400.0 mg/kg/injection, schedule: Q01DX001 (ip), vehicle: saline sonified 100 % of control

CC1=NC2(CCCCC2)C[N+]1(Cc1ccccc1)Cc1ccccc1
inactive: endpoint: mean survival time, dose: 25.0 mg/kg/injection, schedule: Q01DX009 (ip), vehicle: acetone 101 % of control | endpoint: mean survival time, dose: 50.0 mg/kg/injection, schedule: Q01DX009 (ip), vehicle: acetone 97 % of control

Cc1ccc(C(=O)C2OC2c2ccccc2)cc1 (centres undefined)
inactive: [8] 94 % of control | [9] 100 % of control | [10] 94 % of control

C/C(=C\Cl)COC(C)(C)C
inactive: [7] 98 % of control | [1] 93 % of control | endpoint: mean survival time, dose: 100.0 mg/kg/injection, schedule: Q04DX003 (ip), vehicle: acetone 101 % of control | [2] 98 % of control | endpoint: mean survival time, dose: 200.0 mg/kg/injection, schedule: Q04DX003 (ip), vehicle: acetone 93 % of control

O=S(=O)(C#Cc1ccccc1)c1ccccc1
inactive: [11] 95 % of control | [12] 102 % of control | endpoint: mean survival time, dose: 100.0 mg/kg/injection, schedule: Q01DX001 (ip), vehicle: Klucel (hydroxypropylcellulose) (HPC) 100 % of control

CCCCCCCCC(C)c1cccc(C(C)CCCCCCCC)c1O (centres undefined)
inactive: [9] 103 % of control | [10] 103 % of control
